Several values for one entry are separate records, joined by “and”; a condition that tells them apart may be missing. Identical values can stand only once.
Target: T1, AXL (human catalytic domain) (Homo sapiens, UniProt P30530)
T1 construct: purchased Upstate Ltd. 14-512
T1 sequence (P30530 473-894): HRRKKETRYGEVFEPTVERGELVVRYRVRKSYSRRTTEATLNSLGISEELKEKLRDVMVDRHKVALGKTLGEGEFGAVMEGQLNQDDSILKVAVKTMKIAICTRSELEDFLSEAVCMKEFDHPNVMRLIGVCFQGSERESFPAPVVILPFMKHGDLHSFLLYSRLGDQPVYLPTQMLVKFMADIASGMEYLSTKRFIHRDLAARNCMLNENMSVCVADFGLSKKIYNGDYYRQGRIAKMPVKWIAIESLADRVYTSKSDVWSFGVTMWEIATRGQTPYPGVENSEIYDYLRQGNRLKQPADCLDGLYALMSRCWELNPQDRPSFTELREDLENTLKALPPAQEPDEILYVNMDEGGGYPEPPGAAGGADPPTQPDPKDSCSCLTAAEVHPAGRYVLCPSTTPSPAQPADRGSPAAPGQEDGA
Assay: AXL (human catalytic domain) Enzyme Activity Assay (IMAP fluorescence polarisation)
Type: biochemical
Experimental: Biological Methods AXL (human catalytic domain) Enzyme Activity Assay Reagents
Kinase Assay Reaction Buffer: This consisted of 20 mM HEPES pH 7.0, 10 mM MgCl2, 1 mM DTT, […], 0.01% Triton X100 (v/v), and 0.01% BSA (w/v). All buffer components were purchased from Sigma-Aldrich at reagent grade or higher.
Kinase: Recombinant AXL isoform 1 (aa473-894 corresponding to Genbank Accession Number NP 068713) at 2 mg/mL (20.8 μM) was purchased from Upstate Ltd. (Product code 14-512, lot #28164U). The enzyme was stored at −80° C. and a working stock was prepared to a concentration of 30 nM by diluting 20.8 μM stock 1:693 in cold (4° C.) 1× Reaction Buffer. Final enzyme concentration in the assay was 15 nM.
Substrate: Fluorescein labelled CSK-tide 5FAM-[…]-NH2 was obtained from Molecular Devices (Product code R7270) and used at a working concentration of 200 nM by diluting the 100 μM stock 1:500 in 1× Reaction Buffer in a mix with the enzyme. A negative control (lacking enzyme) was prepared at the same concentrations. Final substrate concentration in the assay was 100 nM.
ATP: Supplied by Sigma (product code A-7699). A 100 mM ATP stock was prepared in […] and used at a working concentration of 375 μM by diluting the 100 mM stock 1:266.6 in Reaction Buffer. Final ATP concentration in the assay was 150 μM; this concentration represents the KM.ATP for this enzyme calculated in this assay.
IMAP Reagents: IMAP screening express kit was obtained from Molecular Devices (product code R8127). The binding reagent was gently re-suspended before diluting by 1:1000 in buffer (Binding Buffer is supplied as a 5× stock and so was diluted with water prior to use—this assay used 40% buffer A and 60% buffer B) and then vortexed before addition to wells. The binding reagent was used at a final dilution of 1:1333.
1 μL samples of test compounds in 10% DMSO/water were added to “test” wells by dry-spotting using a Matrix Platemate Plus. 5 μL Kinase/Substrate in Reaction Buffer were added to columns 1-22 of a Corning black low binding 384 well #6754 (90 μL volume) microplate to give 12 nM and 100 nM reaction concentration respectively. 5 μL substrate in Reaction Buffer was added to columns 23 and 24 to give 100 nM reaction concentration. 4 μL ATP in Reaction Buffer was added to all wells to give 150 μM reaction concentration. The reaction mixture was then incubated at room temperature for 60 minutes. The incubation period was followed by the addition of 20 μL IMAP Binding Reagent in Binding Buffer to all wells. The IMAP reaction detection was further incubated at room temperature overnight. The FP on a Tecan Ultra Plate reader was recorded as a single read at Ex485 Em535.
Percentage inhibition was calculated based on activity of the test sample minus the average values in the blank wells relative to the average values measured in control wells minus the average values in the blank wells.
IC50 values were calculated from 10 point dose sigmoid ‘dose-response’ curves using XIfit software (IDBS Inc, USA). Data were fitted to a 4 parameter logistic model/sigmoidal dose response defined by the following equation:
[formula] where: • A=fit minimum (locked to 0); • B=fit maximum (locked to 100); • C=fit midpoint (pre-fit to 1); and • D=slope at linear portion of curve, hillslope (pre-fit to 0.1).
The value for C represents the IC50 of the test compound.

[1] = first data set, recombinant AXL isoform 1 aa473-894, 150 μM ATP
[2] = further data set (WW-001 through WW-169, XX-001 through XX-469, YY-001 through YY-016, ZZ-001 through ZZ-003), 150 μM ATP

Row | SMILES | IC50 [1] | IC50 [2] [nM]
1 | CC(C)(C)CNc1cccc2nc(NC(=O)C3CC3)nn12 [WW-080] | 1000 to 10000 nM | 1000 to 10000
2 | O=C(Nc1nc2cccc(NCc3ccccc3Cl)n2n1)C1CC1 [WW-082] | 1000 to 10000 nM | 1000 to 10000
3 | Cc1ccc(-c2cccc3nc(NC(=O)C4CC4)nn23)cn1 [WW-084] | 1000 to 10000 nM | 1000 to 10000
4 | O=C(Nc1nc2cccc(-c3cnc4ccccc4c3)n2n1)C1CC1 [WW-085] | 1000 to 10000 nM | 1000 to 10000
5 | O=C(Nc1nc2cccc(-c3ccc4ccccc4c3)n2n1)C1CC1 [WW-089] | < 1000 nM | 100 to 1000
6 | O=C(Nc1nc2cccc(-c3ccc4ncccc4c3)n2n1)C1CC1 [WW-092] | < 1000 nM | 100 to 1000
7 | COc1ccc(-c2cccc3nc(NC(=O)C4CC4)nn23)cc1C [WW-094] | < 1000 nM | 100 to 1000
8 | O=C(Nc1nc2cccc(-c3ccc(O)c(F)c3)n2n1)C1CC1 [WW-096] | < 1000 nM | 100 to 1000
9 | O=C(Nc1nc2cccc(-c3ccc(F)c(O)c3)n2n1)C1CC1 [WW-097] | < 1000 nM | 100 to 1000
10 | O=C(Nc1nc2cccc(-c3ccc(OC(F)(F)F)cc3)n2n1)C1CC1 [WW-099] | 1000 to 10000 nM | 1000 to 10000
11 | Cc1cc(-c2cccc3nc(NC(=O)C4CC4)nn23)ccc1N(C)C [WW-103] | < 1000 nM and 664 nM | 100 to 1000
12 | O=C(Nc1nc2cccc(-c3cnn(Cc4ccccc4)c3)n2n1)C1CC1 [WW-105] | 1000 to 10000 nM | 1000 to 10000
13 | O=C(Nc1nc2cccc(-c3ccc4cc[nH]c4c3)n2n1)C1CC1 [WW-106] | < 1000 nM | 100 to 1000
14 | CC(C)Cn1cc(-c2cccc3nc(NC(=O)C4CC4)nn23)cn1 [WW-108] | 1000 to 10000 nM | 1000 to 10000

Further lines, results first:

Row | IC50 [1] | IC50 [2] [nM] | SMILES
15 | 1000 to 10000 nM | 1000 to 10000 | CC(C)CNc1cccc2nc(NC(=O)C3CC3)nn12 [WW-079]
16 | 1000 to 10000 nM | 1000 to 10000 | O=C(Nc1nc2cccc(NCc3cccc(Cl)c3)n2n1)C1CC1 [WW-081]
17 | 1000 to 10000 nM | 1000 to 10000 | Cc1cc(-c2cccc3nc(NC(=O)C4CC4)nn23)ccn1 [WW-087]
18 | 1000 to 10000 nM | 1000 to 10000 | Cc1cc(-c2cccc3nc(NC(=O)C4CC4)nn23)cnc1F [WW-088]
19 | 1000 to 10000 nM | 1000 to 10000 | O=C(Nc1nc2cccc(-c3ccc(F)c(F)c3)n2n1)C1CC1 [WW-090]
20 | 1000 to 10000 nM | 1000 to 10000 | O=C(Nc1nc2cccc(-c3cccc([N+](=O)[O-])c3)n2n1)C1CC1 [WW-091]
21 | 1000 to 10000 nM | 1000 to 10000 | COc1cc(-c2cccc3nc(NC(=O)C4CC4)nn23)ccc1O [WW-093]
22 | 1000 to 10000 nM | 1000 to 10000 | COc1c(C)cc(-c2cccc3nc(NC(=O)C4CC4)nn23)cc1C [WW-095]
23 | 1000 to 10000 nM | 1000 to 10000 | COc1cc(-c2cccc3nc(NC(=O)C4CC4)nn23)ccc1F [WW-098]
24 | 1000 to 10000 nM | 1000 to 10000 | COc1ccc(-c2cccc3nc(NC(=O)C4CC4)nn23)cc1OC [WW-100]
25 | 1000 to 10000 nM | 1000 to 10000 | CCOc1ccc(-c2cccc3nc(NC(=O)C4CC4)nn23)cc1F [WW-101]
26 | < 1000 nM | 100 to 1000 | O=C(Nc1nc2cccc(-c3ccc4c(c3)OCCO4)n2n1)C1CC1 [WW-102]
27 | 1000 to 10000 nM | 1000 to 10000 | O=C(Nc1nc2cccc(-c3ccc([N+](=O)[O-])cc3)n2n1)C1CC1 [WW-107]
